According to PMC10817170, “Effect of an NHE3 inhibitor in combination with an NPT2b inhibitor on gastrointestinal phosphate absorption in Rodent models” (PLOS ONE, 2024):
Values joined by “and” are separate entries in the source; they are usually repeats but may differ in a detail not shown here. Equal values may be shown once.

Experiments:
[1] = tested on: acute phosphate uptake into plasma; assay: Acute radiolabeled phosphate uptake into plasma in mice; assay type: in vivo
Protocol: A dosing solution for a 10 mg/kg dose of LY3304000 using a 10 mL/kg dosing volume was made in 1% HEC vehicle. The subsequent dosing solutions for 3, 1, 0.3, 0.1, 0.03, 0.01, 0.003, and 0.001 mg/kg were prepared by serial dilutions with HEC. A Radiolabeled Phosphate Dosing Solution was made in a 16.25 mM Na2HPO4, 0.9% saline, pH 7.4, solution with the addition of about 2.5 μCi/mL radioactive phosphate (H3^33PO4, PerkinElmer) and filtered before dosing. Following 12-hour fasting with access to water, male SD rats were orally dosed at 10 mL/kg with either vehicle or varying doses of LY3304000. Fifteen minutes later, 2 mL of the Radiolabeled Phosphate Dosing Solution was dosed by oral gavage. This dose of phosphate was chosen because it approximates the rat equivalent to the amount of bioavailable phosphate in a human meal, 4 mg/kg phosphorus, or 320 mg phosphorus for an 80 kg person on a phosphate restricted diet. Fifteen minutes later, blood was collected by cardiac stick, and plasma was prepared. Radioactivity (dpm) in 50 μL plasma was measured by scintillation counting. To determine the total radioactivity dosed to each rat, the radioactivity in two 10-μL samples of the Radiolabeled Phosphate Dosing Solution was measured by scintillation counting. To calculate the total radioactivity recovered in plasma, it was assumed that total blood volume constitutes about 60% of the body weight and plasma constitutes about 55% of the total blood. The mole amount of phosphate uptake was calculated as the percentage of administered radiolabeled phosphate recovered in the plasma of vehicle or LY3304000 treated rats multiplied by total phosphate amount in the radiolabeled phosphate dosing solution. ED50 values were then determined with a 4-parameter logistic curve fitting model using GraphPad Prism. A 15-minute time point, post phosphate dosing, was chosen for collecting blood in the acute phosphate uptake studies in rats and mice (see below) to capture the initial rate of phosphate absorption. We wanted to avoid measurements at longer time points when plasma radiolabeled phosphate appears to be at a steady state. LY3304000 dosing solution and Radioactive Phosphate Dosing Solution were made as described above. Following 12-hour fasting with access to water, male C57Bl/6 mice were dosed orally at 10 mL/kg with either vehicle or varying doses of LY3304000. Fifteen minutes later, 200 μL of the Radiolabeled Phosphate Dosing Solution was dosed by oral gavage. Fifteen minutes later, blood was collected by cardiac stick, and plasma was prepared. The measurement of acute phosphate uptake was determined as described above for rats.

[2] = tested on: T1, NHE3; assay: Sodium and phosphate excretion in urine after oral NaH2PO4 bolus in rats; assay type: in vivo; details: 4 h urine; for Phosphorus-to-Creatinine / Sodium-to-Creatinine / Total Urinary Phosphorus / Total Urinary Sodium / Urinary-to-Dietary Phosphate / Urinary-to-Dietary Sodium / Urine Volume: NaH2PO4 bolus
T1 construct: from tissue; host or cells: intestine of living SD rats
Protocol: To assess sodium and phosphate absorption in rats, we took advantage of the increase in urinary sodium and phosphate excretion following an oral bolus of sodium phosphate. Thus, an LY3304000 dependent decrease in urinary sodium and phosphate excretion following an oral bolus dose of sodium phosphate is an indirect measurement of the ability of LY3304000 to inhibit sodium and phosphate absorption in intestine. A dosing solution of 3 mg/kg LY3304000 for a 10 mL/kg dose volume was formulated in 1% HEC. The subsequent dosing solutions of 1, 0.3, 0.1, 0.03, 0.01, 0.003, and 0.001 mg/kg LY3304000 were prepared by serial dilutions with 1% HEC. An NaH2PO4 dosing solution at 690 mg/kg with a 20 mL/kg dosing volume was made in sterile water. Male SD rats were fasted for 4 hours with access to water and then orally dosed at 10 mL/kg with 1% HEC vehicle or varying dose of LY3304000 at 0.001, 0.003, 0.01, 0.03, 0.1, 0.3, 1, and 3 mg/kg. In this and subsequent studies where phosphate absorption is measured, a 4 hour fast was used which is less disruptive to the animal’s normal physiology than the 12 hours fast used to measure acute phosphate uptake into plasma. Fifteen minutes later, rats were dosed with either sterile water or NaH2PO4 solution, and then immediately transferred to metabolic cages. Urine samples were collected from the metabolic cages at 4 hours post sterile water or NaH2PO4 dose. The net urine volume was recorded. Urinary sodium, creatinine, and phosphorus (as a measure of phosphate) were determined using a clinical biochemistry analyzer. The urinary sodium-to-creatinine and phosphorus-to-creatinine ratios were calculated and compared between vehicle and LY3304000 treated groups. The ratios of urinary-to-dietary phosphate (measured as phosphorus) and urinary-to-dietary sodium in urine were compared between vehicle and LY3304000 treated groups.

For `CN1Cc2c(Cl)cc(Cl)cc2[C@H](c2cccc(S(=O)(=O)NCCOCCOCCN/C(=N\C(N)=O)NCCCCN/C(=N/C(N)=O)NCCOCCOCCNS(=O)(=O)c3cccc([C@@H]4CN(C)Cc5c(Cl)cc(Cl)cc54)c3)c2)C1.Cl.Cl` [LY3304000, (Z)-[[4-[[(Z)-N’-carbamoyl-N-[2-[2-[2-[[3-[(4S)-6,8-dichloro-2-methyl-3,4-dihydro-1H-isoquinolin-4-yl]phenyl]sulfonylamino]ethoxy]ethoxy]ethyl]carbamimidoyl]amino]butylamino]-[2-[2-[2-[[3-[(4S)-6,8-dichloro-2-methyl-3,4-dihydro-1H-isoquinolin-4-yl]phenyl]sulfonylamino]ethoxy]ethoxy]ethylamino]methylene]urea dihydrochloride], the ED50 ([1]; Mus musculus, po, 0.25 h, oral, plasma 15 min post 33P phosphate, read-out: ED50 (increase of phosphate uptake)) was 0.48 mg/kg, the “Emax, Pi uptake” value ([1]; curve fit) was 80.01 nmol and the “radiolabeled phosphate recovered in plasma” value ([1]; highest doses tested, vehicle 39 nmoles) was 78 nmol. The “ED50 (increase of phosphate uptake)” value ([1]; oral, plasma 15 min post 33P phosphate) was 0.479 mg/kg, the Phosphorus-to-Creatinine ([2]; 0.001 mg/kg po) was 14 mg/mg and the Sodium-to-Creatinine ([2]; 0.001 mg/kg po) was 10 mg/mg. For the same compound, the “Total Urinary Phosphorus” value ([2]; 0.001 mg/kg po) was 12501 µg, the “Total Urinary Sodium” value ([2]; 0.001 mg/kg po) was 9084 µg and the “Urinary-to-Dietary Phosphate” value ([2]; 0.001 mg/kg po) was 0.337. For the same compound, the “Urinary-to-Dietary Sodium” value ([2]; 0.001 mg/kg po) was 0.326, the “Urine Volume” value ([2]; 0.001 mg/kg po) was 4 mL and the Phosphorus-to-Creatinine ([2]; 0.003 mg/kg po) was 14.1 mg/mg. For the same compound, the Sodium-to-Creatinine ([2]; 0.003 mg/kg po) was 12.2 mg/mg, the “Total Urinary Phosphorus” value ([2]; 0.003 mg/kg po) was 12997 µg and the “Total Urinary Sodium” value ([2]; 0.003 mg/kg po) was 11429 µg. For the same compound, the “Urinary-to-Dietary Phosphate” value ([2]; 0.003 mg/kg po) was 0.350, the “Urinary-to-Dietary Sodium” value ([2]; 0.003 mg/kg po) was 0.413 and the “Urine Volume” value ([2]; 0.003 mg/kg po) was 4.6 mL. For the same compound, the Phosphorus-to-Creatinine ([2]; 0.01 mg/kg po) was 15 mg/mg, the Sodium-to-Creatinine ([2]; 0.01 mg/kg po) was 9.8 mg/mg and the “Total Urinary Phosphorus” value ([2]; 0.01 mg/kg po) was 12066 µg. The “Total Urinary Sodium” value ([2]; 0.01 mg/kg po) was 8104 µg, the “Urinary-to-Dietary Phosphate” value ([2]; 0.01 mg/kg po) was 0.320 and the “Urinary-to-Dietary Sodium” value ([2]; 0.01 mg/kg po) was 0.290. For the same compound, the “Urine Volume” value ([2]; 0.01 mg/kg po) was 3.8 mL, the Phosphorus-to-Creatinine ([2]; 0.03 mg/kg po) was 13 mg/mg and the Sodium-to-Creatinine ([2]; 0.03 mg/kg po) was 9.8 mg/mg. For the same compound, the “Total Urinary Phosphorus” value ([2]; 0.03 mg/kg po) was 9961 µg, the “Total Urinary Sodium” value ([2]; 0.03 mg/kg po) was 7637 µg and the “Urinary-to-Dietary Phosphate” value ([2]; 0.03 mg/kg po) was 0.268. For the same compound, the “Urinary-to-Dietary Sodium” value ([2]; 0.03 mg/kg po) was 0.276, the “Urine Volume” value ([2]; 0.03 mg/kg po) was 2.7 mL and the Phosphorus-to-Creatinine ([2]; 0.1 mg/kg po) was 12.3 mg/mg. For the same compound, the Sodium-to-Creatinine ([2]; 0.1 mg/kg po) was 5.3 mg/mg, the “Total Urinary Phosphorus” value ([2]; 0.1 mg/kg po) was 7247 µg and the “Total Urinary Sodium” value ([2]; 0.1 mg/kg po) was 2850 µg. The “Urinary-to-Dietary Phosphate” value ([2]; 0.1 mg/kg po) was 0.197, the “Urinary-to-Dietary Sodium” value ([2]; 0.1 mg/kg po) was 0.105 and the “Urine Volume” value ([2]; 0.1 mg/kg po) was 1.7 mL. For the same compound, the Phosphorus-to-Creatinine ([2]; 0.3 mg/kg po) was 12 mg/mg, the Sodium-to-Creatinine ([2]; 0.3 mg/kg po) was 2.4 mg/mg and the “Total Urinary Phosphorus” value ([2]; 0.3 mg/kg po) was 6250 µg. For the same compound, the “Total Urinary Sodium” value ([2]; 0.3 mg/kg po) was 1095 µg, the “Urinary-to-Dietary Phosphate” value ([2]; 0.3 mg/kg po) was 0.168 and the “Urinary-to-Dietary Sodium” value ([2]; 0.3 mg/kg po) was 0.039. The “Urine Volume” value ([2]; 0.3 mg/kg po) was 1 mL, the Phosphorus-to-Creatinine ([2]; 1 mg/kg po) was 11.3 mg/mg and the Sodium-to-Creatinine ([2]; 1 mg/kg po) was 2.4 mg/mg. The “Total Urinary Phosphorus” value ([2]; 1 mg/kg po) was 7081 µg, the “Total Urinary Sodium” value ([2]; 1 mg/kg po) was 1400 µg and the “Urinary-to-Dietary Phosphate” value ([2]; 1 mg/kg po) was 0.191. The “Urinary-to-Dietary Sodium” value ([2]; 1 mg/kg po) was 0.051, the “Urine Volume” value ([2]; 1 mg/kg po) was 1.4 mL and the Phosphorus-to-Creatinine ([2]; 3 mg/kg po) was 9.5 mg/mg. For the same compound, the “Total Urinary Phosphorus” value ([2]; 3 mg/kg po) was 5346 µg, the “Total Urinary Sodium” value ([2]; 3 mg/kg po) was 612 µg and the “Urinary-to-Dietary Phosphate” value ([2]; 3 mg/kg po) was 0.144. The “Urinary-to-Dietary Sodium” value ([2]; 3 mg/kg po) was 0.022, the “Urine Volume” value ([2]; 3 mg/kg po) was 1 mL and the Sodium-to-Creatinine ([2]; 3 mg/kg po, 3 mg/kg) was 1.0 ± 0.4 mg/mg and 1 mg/mg. For the same compound, the “ED50, urinary phosphorus excretion” value ([2]; urinary-to-dietary phosphorus) was 0.041 mg/kg and the “ED50, urinary sodium excretion” value ([2]; urinary-to-dietary sodium) was 0.058 mg/kg.
